According to patent US8008074B2, “Compositions and methods for improving bone mass through modulation of receptors of PTH and fragments thereof” (The UAB Research Foundation, priority 2006, dated 2011):

What was measured:
β-catenin = β-catenin protein levels in HEK293 cells; assay type: cell-based; settings: different concentrations and time points
Experimental: In parallel, proteins from cytosolic and nuclear fractions were isolated from the UMR 106 cells after a 30 minute treatment with control medium, Wnt-3a conditioned medium, or 5×10^−7 M PTH (1-84). The proteins were transferred to a blotting membrane, and the immunoblots were stained with an anti-β-catenin antibody or antibody to a control protein (α-tubulin or histone). […] Moreover, cytosolic and nuclear β-catenin protein levels also were examined in embryonic kidney epithelial cells (HEK293) that were treated with different concentrations of PTH and harvested at different time points.

LRP5/6 = test: Immunostaining of phosphorylated PPPSP motif of LRP5/6 in rat trabecular bone; assay type: in vivo; settings: rats, single PTH injection
Experimental: To further examine whether LRP5/6 mediates PTH-elevated β-catenin levels in vivo, trabecular bone sections were immunostained with the antibody against phosphorylated PPPSP motif. Formalin-fixed tissue sections of 5 μm thickness were deparaffinized in xylene and rehydrated in graded alcohols. Antigen retrieval was achieved by incubating tissue sections in boiling 10 mmol/L citrate buffer (pH 6.0) for 5 minutes in a microwave oven. All sections were then incubated with hydrogen peroxide for 5 minutes. Subsequently, sections were incubated with the primary antibodies against β-catenin or LRP6 1490 for 1 hour at room temperature. After rinsing the primary antibody in T-PBS, antibody detection was accomplished using the Super Sensitive biotin-streptavidin horseradish peroxidase detection kit (Biogenex, San Ramon, Calif.). The diaminobenzidine tetrachloride Super Sensitive substrate kit (Biogenex, San Ramon, Calif.) was used to visualize the antibody-antigen complex. The sections were then counterstained with hematoxylin. Appropriate negative controls, consisting of tissue sections of each case processed without the addition of primary antibody, were prepared along with positive multitissue control sections. Only those cases with greater than 10% immunohistochemical stains were considered as positive. Assessment of the immunohistochemical staining was performed independently by two pathologists. Contrasting results were discussed until an agreement was reached.
The pattern of phosphorylated LRP5/6 was correlated with the changes of β-catenin levels induced by PTH in Rat osteoblasts.

PTH: Parathyroid hormone ligand, form not stated at the place; figure legends give PTH (1-84) or PTH (1-34)
cytosolic and nuclear β-catenin protein levels (β-catenin): stimulates protein levels of β-catenin in both the cytoplasm and the nucleus in a concentration and time dependent manner | peak of LRP5/6 phosphorylation after PTH injection (LRP5/6): 8 h | start of LRP5/6 phosphorylation after PTH injection (LRP5/6): 2 h | LRP5/6 phosphorylation at 24 hours (LRP5/6; 24 hours): disappearing | phosphorylation of LRP5/6 in preosteoblasts/osteoblasts at the surface of trabecular bone (LRP5/6; data not shown): enhanced phosphorylation of LRP5/6 | total LRP5/6 protein level in osteoblasts of rat tibia bone (LRP5/6; data not shown): remained unchanged
